Bounds are passed on as bounds.

Take `Cc1ccc(S(=O)(=O)Nc2ccc(N)c(C3CCCC3)c2)cc1`: the melting point (as a rule, the temperature, or range, at which the solid turns liquid) amounted to 128 °C.

In turn, `Cc1cccc(C(=O)Cc2ccnc(NC(=O)OC(C)(C)C)c2)c1` returned a melting point of 144 to 146 °C.

In turn, `COc1cc2c3c(cccc3c1[N+](=O)[O-])C(=O)N(O)C2=O` came in with a melting point of 264 to 265 °C.

Turning to `COC(=O)[C@@]1(C)Cc2c([nH]c3ccc(OC)cc23)[C@@H](c2cccc(O)c2)N1` (racemic), the melting point is 175 to 177 °C.

Consider `CCOCCc1cc(C)c(OCC=NO)cc1C`, for which the melting point lay in the range of 66 to 70 °C.

The compound `Clc1ccc(Cc2cccc(-c3ncc4c(n3)CCCC4)n2)cn1` came in with a melting point of 115 to 120 °C.

`NCCc1c[nH]c2ccc(NC(N)=O)cc12`: the melting point was in the range of 188 to 190 °C.

In the case of `O=C(c1ccccc1)c1sc2cc(O)ccc2c1-c1ccccc1`, the melting point lay in the range of 187 to 190 °C.

Compound `N#CC(N=Nc1cc(S(=O)(=O)O)ccc1OC(=O)c1ccccc1)=C(OC(=O)c1ccccc1)c1ccccc1` had a melting point of 193 to 195 °C.

Consider `CC(=O)c1c(N(C)C)nn2ccccc12`, for which the melting point was 59.5 to 60 °C.

`COC(=O)c1ccccc1S(=O)COc1ccc(Cl)cc1Cl` (stereo not given) yielded a melting point of 64 to 67 °C.

In the case of `Cc1cc2c(NC(=S)N3Cc4sccc4CC3CO)cccc2cn1` (racemic), the melting point turned out to be 145 °C.

`COc1ccc(-n2nc(-c3ccc(C)cc3)c(C(N)=O)c2N)cc1`: the melting point was in the range of 174 to 175 °C.

In the case of `CC(C)c1ccc(C(=O)c2c(N)sc3c2CCN(Cc2ccccc2)C3)cc1`, the melting point was 157 to 158 °C.

Take `O=C(O)CN1C(=O)[C@@H](N[C@@H](CCC2CCCCC2)C(=O)O)COc2ccccc21`: the melting point fell in the range of 202 to 205 °C.

Regarding `C=CCN[C@H]1CC(C(=O)OCC)=C[C@@H](OC(CC)CC)[C@@H]1NC(C)=O`, the melting point is 100 to 104 °C.

As for `CC1C=CC(NC(=O)OC(C)(C)C)C([N+](=O)[O-])C1c1cc([N+](=O)[O-])ccc1Cl` (stereo not given), the melting point was 195 to 203 °C.

As to `Cn1c([N+](=O)[O-])cnc1C(C)(C)O`, the melting point was 102 to 107 °C.

The compound `CC(=O)OCc1c(C(=O)C(=O)O)c2cc(-c3cccc(C)c3)ccc2n1Cc1ccc(C)cc1` came in with a melting point of 89 to 90 °C.

Turning to `CCN1Cc2ccc(Cl)cc2-c2c(C(=O)N3CCOCC3)cc(-c3ccccc3)c(=O)n21`, the melting point was in the range of 288 to 289 °C.

In turn, `O=C(O)C1Oc2ccc3ccccc3c2C=C1C(F)(F)F` (stereo not given) had a melting point of 245 to 250 °C.

In turn, `CC1(C)CC(c2cccc(C(F)(F)F)c2)c2ccc(O)cc2O1` (stereo not given) displayed a melting point of 63 to 68 °C.

With `CCCC(=O)c1cnc2c(OCCOCCO)cccc2c1Nc1ccc(F)cc1C`, the melting point is 144 to 145 °C.

Consider `N#CC(C(=O)Nc1ccccc1)C(=O)c1nn(-c2ccccc2)c2c1Cc1ccccc1-2` (stereo not given), for which the melting point was in the range of 273 to 277 °C.

`OCCCCCCCCCCCc1ccc(O)c(O)c1` displayed a melting point of 92 to 93 °C.

In turn, `Nc1nc(OCc2ccccc2)nc2c1ncn2C1OC(CO)C(O)C1O` (stereo not given) registered a melting point of 178 to 179 °C.

As to `C=CCc1cccnc1C(=O)OC`, the melting point fell in the range of 116 to 119 °C.

`COc1ccc(S(=O)(=O)n2c(=O)n(-c3cccc(Cl)c3)c3cc(Cl)ccc32)c(OC)c1` came in with a melting point of 173 °C.

Take `CCCc1c(CS(=O)Cc2ccc(-c3nnn[nH]3)cc2)ccc(C(C)=O)c1O` (stereo not given): the melting point was in the range of 112 to 116 °C.

With `COc1cccc(CC[C@H](O)CO[Si](C)(C)C(C)(C)C)c1O`, the melting point is 44 to 46 °C.

The compound `Cc1oc(-c2ccccc2)nc1CCC(=O)c1ccc(CC2SC(=O)NC2=O)cc1` (stereo not given) gave a melting point of 145 to 146 °C.

`CC(C)c1cccc(S(=O)(=O)n2c(CCCC(=O)O)cc3nc(Cl)ccc32)c1` had a melting point of 119 °C.

`O=C1C(c2ccc(Cl)cc2)Sc2ccc3ccccc3c2N1CCCCl` (stereo not given) registered a melting point of 110 to 112 °C.

`Cc1ccc(Sc2c(O)c3ccc(Cl)cc3[nH]c2=O)cc1` had a melting point of 245 to 246 °C.

The compound `CCC(C(C)=CC(CNC(=O)c1c[nH]cn1)=NO)[N+](=O)[O-]` (stereo not given) yielded a melting point of 157 to 158 °C.

In the case of `COc1ccc(-c2cc(C#N)nnc2-c2ccc(OC)cc2)cc1`, the melting point was 113 to 115 °C.

In turn, `COC(=O)c1cnn(C)c1C(=O)Nc1ccn2nc(-c3ccccc3)nc2c1` came in with a melting point of 243 to 247 °C.

In turn, `CN1CCN(c2ccc(S(=O)(=O)Oc3ccccc3)c(Cl)c2[N+](=O)[O-])CC1` yielded a melting point of 94 to 95 °C.

With `NCCCCCCCC1OCC2(CO1)COC(CCCCCCCN)OC2` (stereo not given), the melting point lay within 74 to 75 °C.

Regarding `CCOCCOc1cc(-n2nc(C)c(Cl)c2C)c(F)cc1C#N`, the melting point turned out to be 86 °C.

`CCCc1c(OCC(O)COc2cccc([N+](=O)[O-])c2C#N)ccc(C(C)=O)c1O` (stereo not given) gave a melting point of 117 to 119 °C.

`Nc1ccc(OCc2ccc(F)cc2)cc1F` came in with a melting point of 42 to 43 °C.

For `NC(=O)n1ccc(-c2ccc(Oc3ccc(N)cc3)cc2)n1`, the melting point was 158 to 160 °C.

As to `CNc1c(NCCCCc2ncc(Br)cc2C)c(=O)c1=O`, the melting point fell in the range of 190 to 191 °C.

With `COc1nc(C)nc(NC(=O)NS(=O)(=O)c2ccc(Cl)nn2)n1`, the melting point was found to be 135 °C.

`Cc1cc(CC(=O)OC(C)(C)C)ccc1NC(=O)Nc1ccccc1` returned a melting point of 143 to 145 °C.

`COc1ccc(C2OC(=O)N3CC(=O)CCC23)cc1OC` (stereo not given): the melting point amounted to 180 °C.

Compound `Cc1cc(-c2c(C)ccc(C(=S)OC(C)(C)C)c2C)on1` came in with a melting point of 102 to 103 °C.

In turn, `CN(C)C(=O)N(C)c1nc2cc(C(C)(C)C)ccc2s1` came in with a melting point of 107 to 108 °C.

For `C[C@@H]1CCCN1CCCOc1ccc(-c2ccc(S(=O)(=O)Cc3ccccc3)nn2)cc1`, the melting point turned out to be 136 °C.

Consider `CC(O)c1ccc(-c2ccnc(Nc3ccc4c(c3)OCCO4)c2)cc1` (stereo not given), for which the melting point is 55.9 to 61.5 °C.

`Cc1nc[nH]c1CSCCC1=NCCS(=O)(=O)N1`: the melting point is 146 to 147 °C.

For `COC(=O)c1cc(-c2ccccc2)c(=O)n2ncc3ccccc3c12`, the melting point lay in the range of 174 to 175 °C.

On to `CC(=O)O[C@@H]1OCC[C@@H]1NC(=O)[C@H](CC(C)C)NC(=O)c1ccc(N)cc1`, for which the melting point lay within 148 to 150 °C.

With `CCN(CC)C(=O)OCC1CN(C(=O)c2cc(OC)c(OC)c(OC)c2)CCN1C(=O)c1cc(OC)c(OC)c(OC)c1` (stereo not given), the melting point was determined as 95.1 °C.

For `CCC1CSC(CCc2ccccc2)(Cn2ccnc2)S1` (stereo not given), the melting point lay in the range of 115 to 118 °C.

Take `O=C(Nc1ccc(-n2nc(C(F)(F)F)cc2C(F)(F)F)cc1)c1cccc(Cl)c1F`: the melting point fell in the range of 113 to 116 °C.

As to `Cc1nnsc1C(=O)c1[nH]c2cc(Cl)ccc2c1CC(=O)O`, the melting point is 215 to 216 °C.

With `CC(C)(NC(=O)C(O)C(Cc1ccc(S(C)(=O)=O)cc1)NC(=O)OCc1ccccc1)C(=O)O` (stereo not given), the melting point lay within 146 to 147 °C.

Compound `CCC1=CN2CC(c3ccc(Br)cc3)N=C2S1` (stereo not given) came in with a melting point of 74.8 °C.

`CC(C)c1ccc(S(=O)(=O)Nc2ccc(C(F)(F)F)cc2I)cc1` showed a melting point of 101 °C.

On to `CCOC(=O)c1cn(CC)c2sc(C=O)cc2c1=O`, for which the melting point was found to be 205 °C.

Consider `Cn1ncc(/C=C/C(=O)Nc2ccc(Cc3nc4ccccc4o3)cc2)c1-c1ccc(F)cc1`, for which the melting point lay within 195 to 196 °C.

`NC(=O)c1nc2ccccc2cc1OCCCN1CCN(c2cccc3sccc23)CC1` yielded a melting point of 153 to 154 °C.

In the case of `COC(=O)C1=C(C)N(CCOC(=O)c2ccccc2)C(=O)NC1c1ccc2ccccc2c1` (stereo not given), the melting point stood at 116 °C.

Turning to `COC(=O)c1ccc(C2CC(=O)NC2(CO)CO)c([N+](=O)[O-])c1` (stereo not given), the melting point was 144 to 145 °C.

As for `Fc1ccc(COc2ccc(CS)cc2)cc1`, the melting point fell in the range of 77 to 80 °C.

`N#Cc1ccc(-c2ccc(N3CCCNC3=O)cc2)cc1` registered a melting point above 200 °C.

`C[C@@H]1C(=O)C[C@H]2C[C@@H]1OO[C@@]2(C)/C=C\c1ccccc1` showed a melting point of 60 °C.

For the compound `CC(=O)N(C(C)=O)c1c(C#N)cnn1-c1ccc(Cl)c(Cl)c1Cl`, the melting point lay within 163 to 165 °C.

As to `CCCCNC(=O)NS(=O)(=O)c1ccccc1-c1ccno1`, the melting point fell in the range of 110 to 113 °C.

For the compound `CS(=O)(=O)c1cccc(Nc2cc(-c3ccccc3OCc3ccccc3)ncn2)c1`, the melting point fell in the range of 199 to 205 °C.

In turn, `CCCc1c(OCCOc2ccccc2C(=O)OC)ccc(C(C)=O)c1O` came in with a melting point of 84 to 87 °C.

`Oc1ccccc1Cc1ccc(Cl)nn1`: the melting point came out at 132 °C.

In the case of `COc1ccc2ccc(NC(=O)c3cccs3)nc2n1`, the melting point was 220 °C.

`COc1ccc(-c2cn(C)cc(-c3ccccc3)c2=O)cc1C` showed a melting point of 157 to 160 °C.

In turn, `O=S(CCCCOc1ccc(C2=C(c3ccccc3)CCCc3cc(O)ccc32)cc1)CCCC(F)(F)C(F)(F)F` (stereo not given) yielded a melting point of 155 °C.

`CCCCOc1cc(C(N)=O)nn1Cc1ccc(Cl)cc1` showed a melting point of 137 to 138 °C.

In turn, `O=C(O)Cc1c(C(=O)c2ccc(Cl)c(F)c2)[nH]c2cc(Cl)ccc12` showed a melting point of 179 to 182 °C.

Regarding `S=c1[nH]ccn1OCc1cccnc1`, the melting point was in the range of 128 to 129 °C.

The compound `COc1cc(F)c(C=O)cc1O` had a melting point of 153 to 154 °C.

In turn, `Clc1ccc2nc(CBr)c(CBr)nc2c1` showed a melting point of 149 to 150 °C.

With `COc1ccc(Cn2nnc(-c3ccc(Cl)cc3Cl)c2N)cc1`, the melting point was in the range of 134 to 137 °C.

With `C=CC(=O)Nc1ccc2c(c1)nnn2C(C)=O`, the melting point lay within 167 to 170 °C.

`COC(=O)C1(c2c(F)cccc2F)Nc2ccccc2N1Cc1c(F)cccc1F` (stereo not given) registered a melting point of 185 to 186 °C.

In the case of `CC=CCC(O)C(=O)c1ccccc1` (stereo not given), the melting point was in the range of 83 to 85 °C.

The compound `O=C(c1cc2ccc3[nH]ccc3c2[nH]1)N1CCC(Cc2ccccc2)CC1` gave a melting point of 186 to 188 °C.

`O=c1cc2sc3ccccc3nc-2c2ccccc12` gave a melting point of 176 to 177 °C.

With `O=C(Nc1cnc2ccc(Cl)cc2c1-c1ccccc1)Nc1c(F)cccc1F`, the melting point lay in the range of 228 to 229 °C.

Compound `COCCNS(=O)(=O)c1ccc2[nH]c(=O)c(=O)[nH]c2c1` returned a melting point of 264 to 267 °C.

Source of the values: a melting point compilation (Tetko et al.; mined from patent text by program, amines drawn as free bases though some values may be those of a salt).
